Several values for one entry are separate records, joined by “and”; a condition that tells them apart may be missing. Identical values can stand only once.
Experiments:
[1] = test system: noise-exposed guinea pigs; assay: ABR threshold shifts after noise exposure (Example 2); format: in vivo, guinea pig; details: day 6 postexposure; n=11; P<0.05 at 4 and 8 kHz, P<0.01 at 16 kHz
Protocol: Adult Dunkin-Hartley female guinea pigs (weight 300-500 g) were exposed, 4 animals at a time, to octave band noise, with a center frequency of 4.0 kHz, 120 dB SPL for 6 hr as described in Example 1. Fragmented hair cell nuclei were assessed from noise-exposed cochleas immediately and 1, 2, 4, 6, 8 and 14 days after noise exposure. Noise-exposed and nonexposed guinea pigs were decapitated under deep anesthesia and inner ears were perilymphatically perfused with 4% paraformaldehyde in PBS, and processed for […] paraffin-embedded sections (Ylikoski et al., Hear Res 65:69-78, 1993; Ylikoski et al., Hear Res 124:17-26, 1998). TUNEL-staining was performed as described below. DNA fragmentation was also verified by DAPI nuclear counterstain (see below). Further, trauma-induced nuclear fragmentation was verified by morphological analysis of contralateral cochleas that were perilymphatically fixed with 2.5% glutaraldehyde in 0.1M phosphate buffer, pH 7.4, postfixed with 1% osmium tetroxide, embedded in epoxy resin, and prepared for surface preparations (see below). […]
Auditory brainstem responses (ABRs) were measured 2 days before noise exposure, and 2, 6 and 14 days after exposure under anesthesia (xylazine 10 mg/kg and ketamine 40 mg/kg). […] Hearing threshold was determined from a set of responses at varying intensities. […]

[2] = test system: vestibular hair cells (ampullary cristae); assay: Hair cell counts in ampullary cristae after gentamicin treatment; format: in vivo, guinea pig
Protocol: Two experimental groups were formed. Group 1 guinea pigs served as control and were treated with gentamicin only. The animals were injected s.c. with gentamicin at 120 mg/kg body weight, once daily for 14 days. Three guinea pigs (yielding a total of 6 inner ears) were included in this group. The animals were decapitated 30 days after the start of the injections.
Group 2 guinea pigs were treated with gentamicin plus Formula II. The animals were injected s.c. with GM at 120 mg/kg body weight, plus Formula II at 1 mg/kg, once daily for 14 days. Formula II treatment started 1 day before GM injections. Formula II treatment was continued for 28 or 29 days. Four guinea pigs (8 inner ears) were included in this group. The animals were decapitated 30 days after the start of GM injections.
Guinea pigs were decapitated under deep anaesthesia and the inner ears were perilymphatically fixed and immersed with 2.5% glutaraldehyde in 0.1 M phosphate buffer (pH 7.4), postfixed with 1% osmium tetroxide, and embedded in Epon. Cochleas were processed for cytocochleograms (Ylikoski, Acta Otolaryngol (Stockh) Suppl 326:5-20, 1975). The separately dissected and Epon-embedded vestibular organs were cut for 1 μm-thick sections. Every 25th section was collected onto slides and stained with 1% toluidine blue. […] Two control (GM-treated) and 3 Formula II plus GM-treated ampullae were used for analysis. The presence of cell nuclei in the sensory layer (upper half) of the sensory epithelium was regarded as the presence of hair cells. Supporting cell nuclei were clearly distinguished from hair cells by their position (lower part) in the epithelium and by toluidine blue that stains the hair cells weaker than the supporting cells. Hair cell loss was measured by comparing the number of hair cell nuclei in the sensory layer to the number of […].

[3] = test system: cochlear ganglion neurons; assay: Survival of dissociated cochlear neurons in culture; format: cell-based; details: E21 rat cochlear ganglia; Formula II 500 nM; NT-3 2 ng/ml in parallel cultures; 48 hr
Protocol: Neuronal enriched cultures from embryonic day 21 (E21) rat cochlear ganglia were prepared as previously described (Ylikoski et al., Hear. Res., 1998, 124:17-26). The cultures were maintained in F14 medium (Life Technologies, Gaithesburg, Md.) containing 10% horse serum (Life Technologies). […] After 48 hr, cultures were fixed with 4% paraformaldehyde and responses were assessed under a phase contrast microscope. Surviving neurons were distinguished by a phase-bright cell body and definite neurites.

For `CCSCc1ccc2c(c1)c1c3c(c4c5cc(CSCC)ccc5n5c4c1n2C1C[C@](O)(C(=O)OC)[C@]5(C)O1)CNC3=O` [Formula II], which “ABR threshold shifts versus noise-exposed control group” value [1] is on record?
Its value is “significantly less”.

What about the “Total number of hair cells” value ([2]; GM + Formula II, single ampulla, all sections counted) of the same molecule?
Its value is 518 and 328 and 620.

What about the “Hair cells per frame” value ([2]; GM + Formula II, single ampulla, decimal comma) of the same molecule?
The value was 1,9 and 2,2.

What about the “protective effect in the ampullae” value ([2]; gentamicin 120 mg/kg plus Formula II 1 mg/kg, relative hair cell loss, n=3 ampullae) of the same molecule?
The value was 70%.

What about the “survival of cochlear neurons” value [3] of the same molecule?
The value was “as efficacious as NT-3”.

From patent publication US6448283B1, “Methods for preventing/treating damage to sensory hair cells and cochlear neurons” (Cephalon, Inc., priority 1998, dated 2002)
